Results from patent publication US20080051387A1, “TETRAHYDROPYRIDO[3,4-D]PYRIMIDINES AND RELATED ANALOGUES” (priority 2006, published 2008).

Molecular target: T1, chimeric human H3 receptor (Homo sapiens, UniProt Q9Y5N1)
T1 construct: rat Galpha-i2 (Gnai2, rat); made in house; host or cells: Sf9 insect cells (baculovirus); P2 membranes
Test: Chimeric human H3 receptor screening GTP binding assay (inhibition of histamine-stimulated GTP-gamma35S binding, Example 8)
Assay type: biochemical
Settings: 1 h; assay of Example 8; symbol "!" in column headed Ki; read-out: percent inhibition of agonist-induced GTP-gammaS binding to H3
In short: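 Compound tested at 4 μM against 1 μM histamine stimulation; 125 pM GTP-gamma35S binding measured by filtration and scintillation after 60 min at room temperature. Membranes from Sf9 cells expressing chimeric human H3 plus G-protein subunits, in Tris pH 7.4/NaCl/MgCl2/GDP buffer; values are % inhibition after nonspecific subtraction.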

T1 sequence (Q9Y5N1 with tags, fused parts or gaps): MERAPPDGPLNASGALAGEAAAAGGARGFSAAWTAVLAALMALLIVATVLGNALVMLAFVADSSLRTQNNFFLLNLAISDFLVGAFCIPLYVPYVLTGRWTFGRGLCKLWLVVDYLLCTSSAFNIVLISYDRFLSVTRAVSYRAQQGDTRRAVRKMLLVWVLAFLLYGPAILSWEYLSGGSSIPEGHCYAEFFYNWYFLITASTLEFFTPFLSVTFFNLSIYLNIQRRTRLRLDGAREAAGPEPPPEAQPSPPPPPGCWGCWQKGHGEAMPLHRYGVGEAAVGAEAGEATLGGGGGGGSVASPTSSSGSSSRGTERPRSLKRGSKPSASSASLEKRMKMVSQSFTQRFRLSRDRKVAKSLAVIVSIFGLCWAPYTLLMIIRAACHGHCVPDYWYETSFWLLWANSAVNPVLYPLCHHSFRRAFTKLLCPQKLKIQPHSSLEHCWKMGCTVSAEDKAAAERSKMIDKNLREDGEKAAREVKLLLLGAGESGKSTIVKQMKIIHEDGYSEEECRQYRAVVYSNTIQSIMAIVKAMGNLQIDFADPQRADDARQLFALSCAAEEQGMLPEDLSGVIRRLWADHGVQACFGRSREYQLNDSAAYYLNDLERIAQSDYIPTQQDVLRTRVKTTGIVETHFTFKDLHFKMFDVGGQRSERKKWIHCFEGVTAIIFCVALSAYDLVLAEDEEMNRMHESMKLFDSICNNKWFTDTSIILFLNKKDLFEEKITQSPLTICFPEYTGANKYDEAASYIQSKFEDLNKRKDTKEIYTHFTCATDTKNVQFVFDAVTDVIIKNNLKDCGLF

Structure (SMILES)	inhibition at 4 µM [%]
COc1ccc(C(=O)N2CCc3cnc(N4CCN(C5CCC5)CC4)nc3CC2)cc1 [Compound 191, 2-(4-cyclobutylpiperazin-1-yl)-7-(4-methoxybenzoyl)-6,7,8,9-tetrahydro-5H-pyrimido[4,5-d]azepine]	≥ 90
COc1ccccc1C(=O)N1CCc2cnc(N3CCN(C4CCC4)CC3)nc2CC1 [Compound 192, 2-(4-cyclobutylpiperazin-1-yl)-7-(2-methoxybenzoyl)-6,7,8,9-tetrahydro-5H-pyrimido[4,5-d]azepine]	≥ 90
O=C(c1cccc(F)c1)N1CCc2cnc(N3CCN(C4CCC4)CC3)nc2CC1 [Compound 193, 2-(4-cyclobutylpiperazin-1-yl)-7-(3-fluorobenzoyl)-6,7,8,9-tetrahydro-5H-pyrimido[4,5-d]azepine]	≥ 90
O=C(c1ccc(F)cc1)N1CCc2cnc(N3CCN(C4CCC4)CC3)nc2CC1 [Compound 194, 2-(4-cyclobutylpiperazin-1-yl)-7-(4-fluorobenzoyl)-6,7,8,9-tetrahydro-5H-pyrimido[4,5-d]azepine]	≥ 90
O=C(c1ccccc1F)N1CCc2cnc(N3CCN(C4CCC4)CC3)nc2CC1 [Compound 195, 2-(4-cyclobutylpiperazin-1-yl)-7-(2-fluorobenzoyl)-6,7,8,9-tetrahydro-5H-pyrimido[4,5-d]azepine]	≥ 90
O=C(c1ccco1)N1CCc2cnc(N3CCN(C4CCC4)CC3)nc2CC1 [Compound 196, 2-(4-cyclobutylpiperazin-1-yl)-7-(2-furoyl)-6,7,8,9-tetrahydro-5H-pyrimido[4,5-d]azepine]	≥ 90
O=C(c1ccoc1)N1CCc2cnc(N3CCN(C4CCC4)CC3)nc2CC1 [Compound 197, 2-(4-cyclobutylpiperazin-1-yl)-7-(3-furoyl)-6,7,8,9-tetrahydro-5H-pyrimido[4,5-d]azepine]	≥ 90
O=C(c1cccnc1)N1CCc2cnc(N3CCN(C4CCC4)CC3)nc2CC1 [Compound 198, 2-(4-cyclobutylpiperazin-1-yl)-7-(pyridin-3-ylcarbonyl)-6,7,8,9-tetrahydro-5H-pyrimido[4,5-d]azepine]	≥ 90
O=C(c1ccccn1)N1CCc2cnc(N3CCN(C4CCC4)CC3)nc2CC1 [Compound 199, 2-(4-cyclobutylpiperazin-1-yl)-7-(pyridin-2-ylcarbonyl)-6,7,8,9-tetrahydro-5H-pyrimido[4,5-d]azepine]	≥ 90
O=C(c1ccno1)N1CCc2cnc(N3CCN(C4CCC4)CC3)nc2CC1 [Compound 200, 2-(4-cyclobutylpiperazin-1-yl)-7-(isoxazol-5-ylcarbonyl)-6,7,8,9-tetrahydro-5H-pyrimido[4,5-d]azepine]	≥ 90
Cc1noc(C)c1C(=O)N1CCc2cnc(N3CCN(C4CCC4)CC3)nc2CC1 [Compound 201, 2-(4-cyclobutylpiperazin-1-yl)-7-[(3,5-dimethylisoxazol-4-yl)carbonyl]-6,7,8,9-tetrahydro-5H-pyrimido[4,5-d]azepine]	≥ 90
Cc1ncccc1C(=O)N1CCc2cnc(N3CCN(C4CCC4)CC3)nc2CC1 [Compound 202, 2-(4-cyclobutylpiperazin-1-yl)-7-[(2-methylpyridin-3-yl)carbonyl]-6,7,8,9-tetrahydro-5H-pyrimido[4,5-d]azepine]	≥ 90
Cc1cc(C(=O)N2CCc3cnc(N4CCN(C5CCC5)CC4)nc3CC2)nn1C [Compound 203, 2-(4-cyclobutylpiperazin-1-yl)-7-[(1,5-dimethyl-1H-pyrazol-3-yl)carbonyl]-6,7,8,9-tetrahydro-5H-pyrimido[4,5-d]azepine]	≥ 90
CCn1nc(C)cc1C(=O)N1CCc2cnc(N3CCN(C4CCC4)CC3)nc2CC1 [Compound 204, 2-(4-cyclobutylpiperazin-1-yl)-7-[(1-ethyl-3-methyl-1H-pyrazol-5-yl)carbonyl]-6,7,8,9-tetrahydro-5H-pyrimido[4,5-d]azepine]	≥ 90
CC(C)c1ccc(C(=O)N2CCc3cnc(N4CCN(C5CCC5)CC4)nc3CC2)cc1 [Compound 205, 2-(4-cyclobutylpiperazin-1-yl)-7-(4-isopropylbenzoyl)-6,7,8,9-tetrahydro-5H-pyrimido[4,5-d]azepine]	≥ 90
O=C(Cc1ccccc1)N1CCc2cnc(N3CCN(C4CCC4)CC3)nc2CC1 [Compound 213, 2-(4-cyclobutylpiperazin-1-yl)-7-(phenylacetyl)-6,7,8,9-tetrahydro-5H-pyrimido[4,5-d]azepine]	≥ 90
CCC(C)C(=O)N1CCc2cnc(N3CCN(C4CCC4)CC3)nc2CC1 (stereo not drawn) [Compound 223, 2-(4-cyclobutylpiperazin-1-yl)-7-(2-methylbutanoyl)-6,7,8,9-tetrahydro-5H-pyrimido[4,5-d]azepine]	≥ 90
CCCC(C)C(=O)N1CCc2cnc(N3CCN(C4CCC4)CC3)nc2CC1 (stereo not drawn) [Compound 224, 2-(4-cyclobutylpiperazin-1-yl)-7-(2-methylpentanoyl)-6,7,8,9-tetrahydro-5H-pyrimido[4,5-d]azepine]	≥ 90
O=C(/C=C/c1ccccc1)N1CCc2cnc(N3CCN(C4CCC4)CC3)nc2CC1 [Compound 225, 2-(4-cyclobutylpiperazin-1-yl)-7-[(2E)-3-phenylprop-2-enoyl]-6,7,8,9-tetrahydro-5H-pyrimido[4,5-d]azepine]	≥ 90
COc1ccc(C(=O)N2CCc3cnc(N4CCN(C5CCC5)CC4)nc3CC2)cc1Cl [Compound 226, 7-(3-chloro-4-methoxybenzoyl)-2-(4-cyclobutylpiperazin-1-yl)-6,7,8,9-tetrahydro-5H-pyrimido[4,5-d]azepine]	≥ 90

More lines, now with the values ahead:

inhibition at 4 µM [%]	Structure (SMILES)
≥ 90	CCCC(=O)N1CCc2cnc(N3CCN(C4CCC4)CC3)nc2CC1 [Compound 206, 7-butyryl-2-(4-cyclobutylpiperazin-1-yl)-6,7,8,9-tetrahydro-5H-pyrimido[4,5-d]azepine]
≥ 90	CCCCC(=O)N1CCc2cnc(N3CCN(C4CCC4)CC3)nc2CC1 [Compound 207, 2-(4-cyclobutylpiperazin-1-yl)-7-pentanoyl-6,7,8,9-tetrahydro-5H-pyrimido[4,5-d]azepine]
≥ 90	CC(C)CC(=O)N1CCc2cnc(N3CCN(C4CCC4)CC3)nc2CC1 [Compound 208, 2-(4-cyclobutylpiperazin-1-yl)-7-(3-methylbutanoyl)-6,7,8,9-tetrahydro-5H-pyrimido[4,5-d]azepine]
≥ 90	CC(C)CCC(=O)N1CCc2cnc(N3CCN(C4CCC4)CC3)nc2CC1 [Compound 209, 2-(4-cyclobutylpiperazin-1-yl)-7-(4-methylpentanoyl)-6,7,8,9-tetrahydro-5H-pyrimido[4,5-d]azepine]
≥ 90	O=C(CC1CCCC1)N1CCc2cnc(N3CCN(C4CCC4)CC3)nc2CC1 [Compound 210, 2-(4-cyclobutylpiperazin-1-yl)-7-(cyclopentylacetyl)-6,7,8,9-tetrahydro-5H-pyrimido[4,5-d]azepine]
≥ 90	O=C(CC1CCCCC1)N1CCc2cnc(N3CCN(C4CCC4)CC3)nc2CC1 [Compound 211, 2-(4-cyclobutylpiperazin-1-yl)-7-(cyclohexylacetyl)-6,7,8,9-tetrahydro-5H-pyrimido[4,5-d]azepine]
≥ 90	O=C(CCC1CCCC1)N1CCc2cnc(N3CCN(C4CCC4)CC3)nc2CC1 [Compound 212, 2-(4-cyclobutylpiperazin-1-yl)-7-(3-cyclopentylpropanoyl)-6,7,8,9-tetrahydro-5H-pyrimido[4,5-d]azepine]
≥ 90	COCCC(=O)N1CCc2cnc(N3CCN(C4CCC4)CC3)nc2CC1 [Compound 214, 2-(4-cyclobutylpiperazin-1-yl)-7-(3-methoxypropanoyl)-6,7,8,9-tetrahydro-5H-pyrimido[4,5-d]azepine]
≥ 90	O=C(C1CC1)N1CCc2cnc(N3CCN(C4CCC4)CC3)nc2CC1 [Compound 215, 2-(4-cyclobutylpiperazin-1-yl)-7-(cyclopropylcarbonyl)-6,7,8,9-tetrahydro-5H-pyrimido[4,5-d]azepine]
≥ 90	O=C(C1CCC1)N1CCc2cnc(N3CCN(C4CCC4)CC3)nc2CC1 [Compound 216, 7-(cyclobutylcarbonyl)-2-(4-cyclobutylpiperazin-1-yl)-6,7,8,9-tetrahydro-5H-pyrimido[4,5-d]azepine]
≥ 90	O=C(C1CCCC1)N1CCc2cnc(N3CCN(C4CCC4)CC3)nc2CC1 [Compound 217, 2-(4-cyclobutylpiperazin-1-yl)-7-(cyclopentylcarbonyl)-6,7,8,9-tetrahydro-5H-pyrimido[4,5-d]azepine]
≥ 90	O=C(C1CCCCC1)N1CCc2cnc(N3CCN(C4CCC4)CC3)nc2CC1 [Compound 218, 2-(4-cyclobutylpiperazin-1-yl)-7-(cyclohexylcarbonyl)-6,7,8,9-tetrahydro-5H-pyrimido[4,5-d]azepine]
≥ 90	O=C(C1CCCCCC1)N1CCc2cnc(N3CCN(C4CCC4)CC3)nc2CC1 [Compound 219, 2-(4-cyclobutylpiperazin-1-yl)-7-(cycloheptylcarbonyl)-6,7,8,9-tetrahydro-5H-pyrimido[4,5-d]azepine]
≥ 90	O=C(C1CCCO1)N1CCc2cnc(N3CCN(C4CCC4)CC3)nc2CC1 (stereo not drawn) [Compound 220, 2-(4-cyclobutylpiperazin-1-yl)-7-(tetrahydrofuran-2-ylcarbonyl)-6,7,8,9-tetrahydro-5H-pyrimido[4,5-d]azepine]
≥ 90	O=C(C1CCOC1)N1CCc2cnc(N3CCN(C4CCC4)CC3)nc2CC1 (stereo not drawn) [Compound 221, 2-(4-cyclobutylpiperazin-1-yl)-7-(tetrahydrofuran-3-ylcarbonyl)-6,7,8,9-tetrahydro-5H-pyrimido[4,5-d]azepine]
≥ 90	CC(C)C(=O)N1CCc2cnc(N3CCN(C4CCC4)CC3)nc2CC1 [Compound 222, 2-(4-cyclobutylpiperazin-1-yl)-7-isobutyryl-6,7,8,9-tetrahydro-5H-pyrimido[4,5-d]azepine]
